Results taken from patent publication US10875876B2, “Cyclized sulfamoylarylamide derivatives and the use thereof as medicaments for the treatment of hepatitis B” (priority 2015, dated 2020).
Where two headings read alike, the source gives them in different places.

How the values were obtained:
[1] = Cytotoxicity in HepG2 cells, Resazurin assay; conditions: human, HepG2 cells, TOX-HepG2-4 d CC50 (μM), HepG2 cells incubated for 4 days, viability by Resazurin assay
HBV = assay: anti HBV activity, HepG2.117 cell line, intracellular HBV DNA by realtime PCR; format: cell-based; conditions: HepG2.117 cell line (Tet-off), 3 days of treatment, intracellular HBV DNA quantified by realtime PCR, read-out: HBV-AVE-HepG2.117 EC50
Method in brief: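 HepG2.117 cells, a Tet-off line that replicates HBV without doxycycline, were induced and then treated in duplicate with serially diluted compound. After 3 days, intracellular HBV DNA was quantified by real-time PCR with an HBV-specific primer set and probe.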

[2] = Hepatitis B virus, HepG2.117, 72 h

| Compound | CC50 at 4 days [1] [µM] | EC50 (HBV; [2]) [nM] | EC50 (HBV) [nM] |
| --- | --- | --- | --- |
| Cn1cc2c(c1C(=O)Nc1ccc(F)c(F)c1)OC[C@H]([C@H](O)c1ccccc1)NS2(=O)=O [Compound 36, (3R)—N-(3,4-difluorophenyl)-3-[(R)-hydroxy(phenyl)methyl]-7-methyl-1,1-dioxo-3,4-dihydro-2H-pyrrolo[3,4-b][1,4,5]oxathiazepine-6-carboxamide] | > 25 | 5 | – |
| Cc1cc(CC2(C)COc3c(cn(C)c3C(=O)Nc3ccc(F)c(F)c3)S(=O)(=O)N2)no1 (racemic) [Compound 162, N-(3,4-difluorophenyl)-3,7-dimethyl-3-[(5-methylisoxazol-3-yl)methyl]-1,1-dioxo-2,4-dihydropyrrolo[3,4-b][1,4,5]oxathiazepine-6-carboxamide] | > 25 | 3 | – |
| C[C@H]1C=Cc2c(cn(C)c2C(=O)Nc2ccc(F)c(C(F)(F)F)c2)S(=O)(=O)N1 (single isomer, unassigned) [Compound 30, (*S)—N-[4-fluoro-3-(trifluoromethyl)phenyl]-3,7-dimethyl-1,1-dioxo-2,3-dihydropyrrolo[3,4-f]thiazepine-6-carboxamide] | > 25 | 13 | – |
| Cn1cc2c(c1C(=O)Nc1ccc(F)c(C(F)F)c1)OC[C@H](Cc1cccnc1)NS2(=O)=O [Compound 75, (3S)—N-[3-(difluoromethyl)-4-fluoro-phenyl]-7-methyl-1,1-dioxo-3-(3-pyridylmethyl)-3,4-dihydro-2H-pyrrolo[3,4-b][1,4,5]oxathiazepine-6-carboxamide] | > 25 | 7 | – |
| Cc1cc(CC2(C)COc3c(cn(C)c3C(=O)Nc3ccc(F)c(C(F)F)c3)S(=O)(=O)N2)n(C)n1 (racemic) [Compound 176, N-[3-(difluoromethyl)-4-fluoro-phenyl]-3-[(2,5-dimethylpyrazol-3-yl)methyl]-3,7-dimethyl-1,1-dioxo-2,4-dihydropyrrolo[3,4-b][1,4,5]oxathiazepine-6-carboxamide] | > 25 | 4 | – |
| C[C@H](O)[C@H]1C=Cc2c(cn(C)c2C(=O)Nc2ccnc(Br)c2)S(=O)(=O)N1 [Compound 97, (3R)—N-(2-bromo-4-pyridyl)-3-[(1S)-1-hydroxyethyl]-7-methyl-1,1-dioxo-2,3-dihydropyrrolo[3,4-f]thiazepine-6-carboxamide] | > 25 | 55 | – |
| CC1CCCC/C=C/Cc2c(cn(C)c2C(=O)Nc2ccc(F)c(F)c2)S(=O)(=O)N1 (stereo not shown) [Compound 1, (9E)-N-(3,4-difluorophenyl)-4,14-dimethyl-2,2-dioxo-2λ^6-thia-3,14-diazabicyclo[10.3.0]pentadeca-1(15),9,12-triene-13-carboxamide] | > 25 | 2740 | – |
| Cc1ccc(NC(=O)c2c(F)ccc3c2OC[C@@H](C(C)C)NS3(=O)=O)cc1F [Compound 46, (3R)-7-fluoro-N-(3-fluoro-4-methyl-phenyl)-3-isopropyl-1,1-dioxo-3,4-dihydro-2H-5,1λ^6,2-benzoxathiazepine-6-carboxamide] | > 25 | 330 | – |
| C[C@H](O)[C@H]1CCc2c(cn(C)c2C(=O)Nc2ccc(F)c(C#N)c2)S(=O)(=O)N1 [Compound 90, (3R)—N-(3-cyano-4-fluoro-phenyl)-3-[(1S)-1-hydroxyethyl]-7-methyl-1,1-dioxo-2,3,4,5-tetrahydropyrrolo[3,4-f]thiazepine-6-carboxamide] | > 25 | 19 | – |
| Cn1cc2c(c1C(=O)Nc1ccc(F)c(F)c1)CCC1(COC1)NS2(=O)=O [Compound 131, N-(3,4-difluorophenyl)-7-methyl-1,1-dioxo-spiro[4,5-dihydro-2H-pyrrolo[3,4-f]thiazepine-3,3′-oxetane]-6-carboxamide] | > 25 | 23 | – |
| Cn1cc2c(c1C(=O)Nc1ccc(F)c(F)c1)OC[C@H](C(O)C1CC1)NS2(=O)=O (stereo partly drawn) [Compound 105a, (3R)-3-[cyclopropyl(hydroxy)methyl]-N-(3,4-difluorophenyl)-7-methyl-1,1-dioxo-3,4-dihydro-2H-pyrrolo[3,4-b][1,4,5]oxathiazepine-6-carboxamide] | > 25 | 7 | – |
| Cn1cc2c(c1C(=O)Nc1ccc(F)c(F)c1)OC[C@@](C)(Cc1ccccc1)NS2(=O)=O [Compound 154, (3R)-3-benzyl-N-(3,4-difluorophenyl)-3,7-dimethyl-1,1-dioxo-2,4-dihydropyrrolo[3,4-b][1,4,5]oxathiazepine-6-carboxamide] | > 25 | 8 | – |
| Cn1cc2c(c1C(=O)Nc1ccc(F)c(C#N)c1)C=CC(C(F)F)NS2(=O)=O (stereo not shown) [Compound 189, N-(3-cyano-4-fluoro-phenyl)-3-(difluoromethyl)-7-methyl-1,1-dioxo-2,3-dihydropyrrolo[3,4-f]thiazepine-6-carboxamide] | > 25 | 110 | – |
| C[C@@H](O)[C@H]1C=Cc2c(cn(C)c2C(=O)Nc2ccc(F)c(F)c2)S(=O)(=O)N1 [Compound 69, (3R)—N-(3,4-difluorophenyl)-3-[(1R)-1-hydroxyethyl]-7-methyl-1,1-dioxo-2,3-dihydropyrrolo[3,4-f]thiazepine-6-carboxamide] | > 25 | 33 | – |
| Cn1cc2c(c1C(=O)Nc1ccnc(C(F)(F)F)c1)CCC(C(F)(F)F)NS2(=O)=O (single isomer, unassigned) [Compound 59a, 7-methyl-1,1-dioxo-3-(trifluoromethyl)-N-[2-(trifluoromethyl)-4-pyridyl]-2,3,4,5-tetrahydropyrrolo[3,4-f]thiazepine-6-carboxamide] | > 25 | – | > 500 |
| CCC(O)[C@@H]1COc2c(cn(C)c2C(=O)Nc2ccc(F)c(F)c2)S(=O)(=O)N1 (single isomer, unassigned) [Compound 142a, N-(3,4-difluorophenyl)-3-(1-hydroxypropyl)-7-methyl-1,1-dioxo-3,4-dihydro-2H-pyrrolo[3,4-b][1,4,5]oxathiazepine-6-carboxamide] | > 25 | 65 | – |
| CC(C)C1CCc2c(cn(C)c2C(=O)Nc2ccc(F)c(F)c2)S(=O)(=O)N1 (stereo not shown) [Compound 81, N-(3,4-difluorophenyl)-3-isopropyl-7-methyl-1,1-dioxo-2,3,4,5-tetrahydropyrrolo[3,4-f]thiazepine-6-carboxamide] | > 25 | 2 | – |
| C[C@H]1CCc2c(cn(C)c2C(=O)Nc2ccc(F)c(C(F)(F)F)c2)S(=O)(=O)N1 (single isomer, unassigned) [Compound 40, (3*S)—N-[4-fluoro-3-(trifluoromethyl)phenyl]-3,7-dimethyl-1,1-dioxo-2,3,4,5-tetrahydropyrrolo[3,4-f]thiazepine-6-carboxamide] | > 25 | 22 | – |
| CC1C/C=C\c2c(cn(C)c2C(=O)Nc2ccc(F)c(F)c2)S(=O)(=O)N1 (single isomer, unassigned) [Compound 15a, (5Z)—N-(3,4-difluorophenyl)-3,8-dimethyl-1,1-dioxo-3,4-dihydro-2H-pyrrolo[3,4-g]thiazocine-7-carboxamide] | > 25 | – | 78 |
| Cn1cc2c(c1C(=O)Nc1ccc(F)c(C(F)F)c1)CCC1(COC1)NS2(=O)=O [Compound 137, N-[3-(difluoromethyl)-4-fluoro-phenyl]-7-methyl-1,1-dioxo-spiro[4,5-dihydro-2H-pyrrolo[3,4-f]thiazepine-3,3′-oxetane]-6-carboxamide] | > 25 | 6 | – |
| Cn1ccc(CC2(C)COc3c(cn(C)c3C(=O)Nc3ccc(F)c(F)c3)S(=O)(=O)N2)n1 (racemic) [Compound 167, N-(3,4-difluorophenyl)-3,7-dimethyl-3-[(1-methylpyrazol-3-yl)methyl]-1,1-dioxo-2,4-dihydropyrrolo[3,4-b][1,4,5]oxathiazepine-6-carboxamide] | > 25 | 41 | – |
| Cn1cc2c(c1C(=O)Nc1ccc(F)c(F)c1)OCC(C)(CO)NS2(=O)=O (single isomer, unassigned) [Compound 203a, N-(3,4-difluorophenyl)-3-(hydroxymethyl)-3,7-dimethyl-1,1-dioxo-2,4-dihydropyrrolo[3,4-b][1,4,5]oxathiazepine-6-carboxamide] | > 25 | 94 | – |
| Cc1cc(CC2(C)COc3c(cn(C)c3C(=O)Nc3ccc(F)c(F)c3)S(=O)(=O)N2)n(C)n1 (racemic) [Compound 175, N-(3,4-difluorophenyl)-3-[(2,5-dimethylpyrazol-3-yl)methyl]-3,7-dimethyl-1,1-dioxo-2,4-dihydropyrrolo[3,4-b][1,4,5]oxathiazepine-6-carboxamide] | > 25 | 4 | – |
| C[C@H](O)[C@@H]1COc2c(cn(C)c2C(=O)Nc2ccc(F)c(F)c2)S(=O)(=O)N1 [Compound 37, (3S)—N-(3,4-difluorophenyl)-3-[(1S)-1-hydroxyethyl]-7-methyl-1,1-dioxo-3,4-dihydro-2H-pyrrolo[3,4-b][1,4,5]oxathiazepine-6-carboxamide] | > 25 | 200 | – |
| C[C@H](O)[C@H]1C=Cc2c(cn(C)c2C(=O)Nc2ccc(F)c(C#N)c2)S(=O)(=O)N1 [Compound 87, (3R)—N-(3-cyano-4-fluoro-phenyl)-3-[(1S)-1-hydroxyethyl]-7-methyl-1,1-dioxo-2,3-dihydropyrrolo[3,4-f]thiazepine-6-carboxamide] | > 25 | 18 | – |
| CO[C@H](C)[C@H]1COc2c(cn(C)c2C(=O)Nc2ccc(F)c(F)c2)S(=O)(=O)N1 [Compound 62, (3R)—N-(3,4-difluorophenyl)-3-[(1R)-1-methoxyethyl]-7-methyl-1,1-dioxo-3,4-dihydro-2H-pyrrolo[3,4-b][1,4,5]oxathiazepine-6-carboxamide] | > 25 | 9 | – |
